Measurements as given in paper PMC4305368, “Influence of Dimerization of Lipopeptide Laur-Orn-Orn-Cys–NH2 and an N-terminal Peptide of Human Lactoferricin on Biological Activity” (International Journal of Peptide Research and Therapeutics, 2014).
Read-outs that look alike come from different tables or passages of the source. Bridge positions count the residues as written; N and C are the ends. Square brackets hold non-standard residues; d marks the D form. Ends that are not written are not given here. Peptide text beside a SMILES is read from it. I, II: the chains in the order shown. * marks the point of attachment. X1 = CCCCCCCCCCCC(=O)N[C@@H](CCCN)C(=O)N[C@@H](CCCN)C(=O)N[C@@H](CS*)C(N)=O; Lauroyl = CCCCCCCCCCCC(=O)*; Orn = NCCC[C@H](N)C(=O)O

Experiments:
[1] = test system: S. aureus ATCC 6538; assay type: cell-based, Staphylococcus aureus
Experimental: (§1) The reference strains were supplied by the Polish Collection of Microorganisms (Polish Academy of Sciences, Institute of Immunology and Experimental Therapy, Wroclaw, Poland). Minimal inhibitory concentration (MIC) was determined by the microbroth dilution method outlined by the National Committee for Clinical Laboratory Standards ([2003]). The following microbial strains were tested: Gram-positive: Rhodococcus equi ATCC 6939, Staphylococcus epidermidis, S. aureus ATCC 6538, Streptococcus pyogenes and Enterococcus faecalis; Gram-negative: E. coli ATCC 8739, Pseudomonas aeruginosa and fungi: C. albicans ATCC10231. Bacteria were suspended in Mueller–Hinton II broth (Sigma-Aldrich) at initial inocula of 5 × 10^5 cfu (colony-forming units)/mL, while the Sabouraud 5 % dextrose broth of a pH of 7.4 (Sigma-Aldrich) was used for fungi (at initial inoculum of 5 × 10^3 cfu/mL). Microbial cells in polystyrene 96-well plates were exposed to the peptides at adequate concentrations (range 1–512 μg/mL) for 18 h at 37 °C (bacterial strains) or for 48 h at 25 °C (fungi). MIC was taken as the lowest drug concentration at which observable growth was inhibited. Experiments were performed in triplicate on three different days.

[2] = test system: E. coli ATCC 8739; assay type: cell-based, Escherichia coli
Experimental: as §1

[3] = test system: Enterococcus faecalis; assay type: cell-based
Experimental: as §1

[4] = test system: Pseudomonas aeruginosa; assay type: cell-based
Experimental: as §1

[5] = test system: Rhodococcus equi ATCC 6939; assay type: cell-based
Experimental: as §1

[6] = test system: Staphylococcus epidermidis; assay type: cell-based
Experimental: as §1

[7] = test system: Streptococcus pyogenes; assay type: cell-based
Experimental: as §1

[8] = test system: C. albicans ATCC10231; assay type: cell-based, Candida albicans
Experimental: as §1

[9] = test system: human red blood cells; assay: Haemolysis assay; assay type: cell-based; conditions: human red blood cells 4 % [v/v] in PBS, 2 h at 37 °C, range 1-512 µg/mL, assessed visually; 1 % Triton positive control
Experimental: The haemolytic activity of the peptides was tested against human red blood cells, essentially as described previously (Kamysz et al. [2007]). Fresh human blood was collected into tubes containing EDTA as anticoagulant. Red blood cells were separated by centrifugation at 500×g for 12 min at room temperature and the plasma was aspirated. Erythrocytes were washed three times with PBS, separated by centrifugation (500×g, 12 min) and resuspended in PBS. Peptides I–V were serially diluted in PBS (range 1–512 μg/mL) and 50 μL was added to 50 μL of the erythrocyte suspension. The final concentration of red blood cells was 4 % [v/v]. The results were assessed visually after incubation for 2 h at 37 °C. As a positive control, 1 % Triton was used, whereas PBS served as a negative control.

Compound	Antimicrobial activity (MIC) ([1]; Staphylococcus aureus, Mueller-Hinton II broth, 5 × 10^5 cfu/mL, 18 h at 37 °C, range 1-512 µg/mL, triplicate on three different days) [µg/mL]	Antimicrobial activity (MIC) ([2]; Escherichia coli, Mueller-Hinton II broth, 5 × 10^5 cfu/mL, 18 h at 37 °C, range 1-512 µg/mL, triplicate on three different days) [µg/mL]	Antimicrobial activity (MIC) ([3]; Enterococcus faecalis, Mueller-Hinton II broth, 5 × 10^5 cfu/mL, 18 h at 37 °C, range 1-512 µg/mL, triplicate on three different days) [µg/mL]	Antimicrobial activity (MIC) ([4]; Pseudomonas aeruginosa, Mueller-Hinton II broth, 5 × 10^5 cfu/mL, 18 h at 37 °C, range 1-512 µg/mL, triplicate on three different days) [µg/mL]	Antimicrobial activity (MIC) ([5]; Rhodococcus equi, Mueller-Hinton II broth, 5 × 10^5 cfu/mL, 18 h at 37 °C, range 1-512 µg/mL, triplicate on three different days) [µg/mL]	Antimicrobial activity (MIC) ([6]; Staphylococcus epidermidis, Mueller-Hinton II broth, 5 × 10^5 cfu/mL, 18 h at 37 °C, range 1-512 µg/mL, triplicate on three different days) [µg/mL]	Antimicrobial activity (MIC) ([7]; Streptococcus pyogenes, Mueller-Hinton II broth, 5 × 10^5 cfu/mL, 18 h at 37 °C, range 1-512 µg/mL, triplicate on three different days) [µg/mL]	Antimicrobial activity (MIC) ([8]; Candida albicans, Sabouraud 5 % dextrose broth pH 7.4, 5 × 10^3 cfu/mL, 48 h at 25 °C, range 1-512 µg/mL, triplicate on three different days) [µg/mL]	Haemolytic activity [9] [µg/mL]	Antimicrobial activity (MIC) ([1]; ATCC 6538, 18 h) [µg/mL]	Antimicrobial activity (MIC) ([2]; ATCC 8739, 18 h) [µg/mL]	Antimicrobial activity (MIC) ([3]; 18 h) [µg/mL]	Antimicrobial activity (MIC) ([4]; 18 h) [µg/mL]	Antimicrobial activity (MIC) ([5]; ATCC 6939, 18 h) [µg/mL]	Antimicrobial activity (MIC) ([6]; 18 h) [µg/mL]	Antimicrobial activity (MIC) ([7]; 18 h) [µg/mL]	Antimicrobial activity (MIC) ([8]; ATCC10231, 48 h, pH 7.4) [µg/mL]
GRRRRSVQWCA-NH2 [Peptide I, hLF(1–11)–NH2]	64	512	256	32	16	2	2	128	>512	–	–	–	–	–	–	–	–
CCCCCCCCCCCC(=O)N[C@@H](CCCN)C(=O)N[C@@H](CCCN)C(=O)N[C@@H](CSSC[C@H](NC(=O)[C@H](Cc1c[nH]c2ccccc12)NC(=O)[C@H](CCC(N)=O)NC(=O)[C@@H](NC(=O)[C@H](CO)NC(=O)[C@H](CCCNC(=N)N)NC(=O)[C@H](CCCNC(=N)N)NC(=O)[C@H](CCCNC(=N)N)NC(=O)[C@H](CCCNC(=N)N)NC(=O)CN)C(C)C)C(=O)N[C@@H](C)C(N)=O)C(N)=O [Peptide V] (H-GRRRRSVQWC(X1)A-NH2; N-terminus assumed)	–	–	–	–	–	–	–	–	–	4	128	32	8	2	1	2	>512
CCCCCCCCCCCC(=O)N[C@@H](CCCN)C(=O)N[C@@H](CCCN)C(=O)N[C@@H](CSSC[C@H](NC(=O)[C@H](CCCN)NC(=O)[C@H](CCCN)NC(=O)CCCCCCCCCCC)C(N)=O)C(N)=O [Peptide IV] (I: Lauroyl-[Orn]-[Orn]-Cys-NH2 / II: Lauroyl-[Orn]-[Orn]-Cys-NH2; disulfide I:3-II:3)	–	–	–	–	–	–	–	–	–	2	8	4	4	1	2	2	>512
CCCCCCCCCCCC(=O)N[C@@H](CCCN)C(=O)N[C@@H](CCCN)C(=O)N[C@@H](CS)C(N)=O [Peptide III, Laur-Orn-Orn-Cys–NH2] (Lauroyl-[Orn]-[Orn]-Cys-NH2)	–	–	–	–	–	–	–	–	–	2	8	2	8	2	2	4	128
